Source: ChEMBL document CHEMBL1201862, “PubChem BioAssay data set” (2004)
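Tested at 5 concentrations; 48 h exposure; 96-well plates; endpoints linearly interpolated, else capped at highest concentration. GI50: concentration for 50% inhibition of growth.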 Active and inactive are the calls of the source. Rule as the data show it: active = GI50 up to about 1.1 µM and inactive = higher.

Columns and labels:
Assay in all cases: growth of human tumour cells (NCI), 48 h
786-0 = test system: 786-0
ACHN = test system: ACHN
EKVX = test system: EKVX
HCC 2998 = test system: HCC 2998
HCT-15 = test system: HCT-15
HL-60 = test system: HL-60
Hs-578T = test system: Hs-578T
M14 = test system: M14
MCF7 = test system: MCF7
MDA-MB-435 = test system: MDA-MB-435
NCI-H23 = test system: NCI-H23
NCI-H460 = test system: NCI-H460
PC-3 = test system: PC-3
SF-268 = test system: SF-268
SK-MEL-28 = test system: SK-MEL-28
SK-MEL-5 = test system: SK-MEL-5
SR = test system: SR
T47D = test system: T47D
UACC-257 = test system: UACC-257
UO-31 = test system: UO-31

Row | SMILES | GI50 (786-0) | GI50 (ACHN) | GI50 (EKVX) | GI50 (HCC 2998) | GI50 (HCT-15) | GI50 (HL-60) | GI50 (Hs-578T) | GI50 (M14) | GI50 (MCF7) | GI50 (MDA-MB-435) | GI50 (NCI-H23) | GI50 (NCI-H460) | GI50 (PC-3) | GI50 (SF-268) | GI50 (SK-MEL-28) | GI50 (SK-MEL-5) | GI50 (SR) | GI50 (T47D) | GI50 (UACC-257) | GI50 (UO-31)
1 | CC12CC(Br)(Br)C(=O)C3C1CCCC32 | 4.07 µM (inactive) | 5.27 µM (inactive) | 7.1 µM (inactive) | 6.89 µM (inactive) | 3.61 µM | 0.767 µM (active) | 12.6 µM (inactive) | 3.64 µM (inactive) | 4.33 µM (inactive) | 3.03 µM (inactive) | 6.46 µM (inactive) | 14.9 µM (inactive) | 12.2 µM (inactive) | 10.2 µM (inactive) | 2.9 µM (inactive) | 5.55 µM (inactive) | 4.43 µM (inactive) | 2.38 µM (inactive) | 8.65 µM (inactive) | 6.05 µM (inactive)
2 | O=c1[nH]nc(Cc2ccc([N+](=O)[O-])cc2)[nH]1 | > 100 µM (inactive) | > 100 µM (inactive) | 54.6 µM (inactive) | > 100 µM (inactive) | > 100 µM | > 100 µM (inactive) | 75 µM (inactive) | > 100 µM (inactive) | > 100 µM (inactive) | > 100 µM (inactive) | > 100 µM (inactive) | > 100 µM (inactive) | > 100 µM (inactive) | > 100 µM (inactive) | > 100 µM (inactive) | > 100 µM (inactive) | > 100 µM (inactive) | > 100 µM (inactive) | > 100 µM (inactive) | 52.5 µM (inactive)
3 | Cc1nc2[nH]ccn2c(=O)c1CCCl | 25.5 µM (inactive) | 23.1 µM (inactive) | > 100 µM (inactive) | 19.2 µM (inactive) | 39.7 µM | 25.4 µM (inactive) | 37.6 µM (inactive) | 31.8 µM (inactive) | 68.1 µM (inactive) | > 10 µM (inactive) | 18.3 µM (inactive) | 20.6 µM (inactive) | 49.7 µM (inactive) | 36.4 µM (inactive) | 30.1 µM (inactive) | 17.1 µM (inactive) | 24.2 µM (inactive) | 91 µM (inactive) | 94.2 µM (inactive) | 33 µM (inactive)
4 | CCOC(C/N=c1/nc(N(C)C)ss1)OCC | 17.7 µM (inactive) | 26.2 µM (inactive) | 34.1 µM (inactive) | > 77.4 µM (inactive) | 25.8 µM | 1.31 µM (inactive) | > 54.8 µM (inactive) | 16.9 µM (inactive) | 2.5 µM (inactive) | 1.91 µM (inactive) | 33.5 µM (inactive) | 4.31 µM (inactive) | 14.3 µM (inactive) | 30.1 µM (inactive) | 21.5 µM (inactive) | 0.832 µM (active) | 1.48 µM (inactive) | 23.4 µM (inactive) | 26.4 µM (inactive) | 43.5 µM (inactive)
5 | C=C(C)[C@H]1C=C[C@@H](OC(C)=O)[C@@]2(COC(C)=O)[C@H](OC(=O)CCC)[C@H]3[C@@H](OC(C)=O)[C@@H](C)C[C@]3(O)C(=O)[C@@](C)(OC(C)=O)[C@H]12 | 39.7 µM (inactive) | 34.2 µM (inactive) | 38.2 µM (inactive) | 27.1 µM (inactive) | 36.2 µM | 33.5 µM (inactive) | 43.1 µM (inactive) | 31.8 µM (inactive) | 42.3 µM (inactive) | 15.3 µM (inactive) | 39.3 µM (inactive) | 21.2 µM (inactive) | 31.6 µM (inactive) | 67 µM (inactive) | 80 µM (inactive) | 34.7 µM (inactive) | 36.3 µM (inactive) | 27 µM (inactive) | 39.4 µM (inactive) | 33.4 µM (inactive)
6 | CC(=O)n1cc(C2CC23N=C(c2ccccc2)OC3=O)c2ccccc21 (stereo not given) | 14.8 µM (inactive) | 17.7 µM (inactive) | 21.8 µM (inactive) | 13.1 µM (inactive) | 20.3 µM | 2.04 µM (inactive) | 24.1 µM (inactive) | 16.2 µM (inactive) | 19.1 µM (inactive) | 21.1 µM (inactive) | 16.5 µM (inactive) | 22.4 µM (inactive) | 17.8 µM (inactive) | 18.3 µM (inactive) | 19.7 µM (inactive) | 17.1 µM (inactive) | 10.6 µM (inactive) | 34.9 µM (inactive) | 15.7 µM (inactive) | 15.5 µM (inactive)
7 | COc1ccc2c(c1OC)C(Br)CCC(Br)(Br)C2=O (stereo not given) | 4.23 µM (inactive) | 1.94 µM (inactive) | 14.1 µM (inactive) | 11.6 µM (inactive) | 5.57 µM | 5.27 µM (inactive) | 18.5 µM (inactive) | 5.25 µM (inactive) | 9.02 µM (inactive) | 6.41 µM (inactive) | 7.21 µM (inactive) | 16 µM (inactive) | 11.9 µM (inactive) | 14 µM (inactive) | 13.1 µM (inactive) | 2.47 µM (inactive) | 1.27 µM (inactive) | 13.8 µM (inactive) | 14.6 µM (inactive) | 4.81 µM (inactive)
